Laboratory results published in patent US20260070909A1, “GPR65 MODULATORS” (Pathios Therapeutics Limited, priority 2022, published 2026).
Where two headings read alike, the source gives them in different places.

Biological target: human recombinant GPR65 (Homo sapiens, UniProt Q8IYL9)
Assay: Human GPR65 cAMP HTRF antagonist assay
Assay type: cell-based
Description: In one preferred embodiment, the compound prevents the increase in cytoplasmic cAMP levels expected following GPR65 activation at acidic pH. This prevention of cAMP accumulation in turn prevents downstream signalling through ICER, as described above. The “Human GPR65 cyclic adenosine monophosphate (cAMP) Homogeneous Time Resolved Fluorescence (HTRF) antagonist assay”, or simply “cAMP assay”, as described in the accompanying examples, can be used to measure the potency of GPR65 modulators, which is expressed as the concentration of compound required to reduce the increase in cAMP concentration upon GPR65 activation by 50% (i.e. an IC50).
Human GPR65 Cyclic Adenosine Monophosphate (cAMP) Homogeneous Time Resolved Fluorescence (HTRF) Antagonist Assay Procedure
IC50 data was obtained by the following procedure:
1321N1 human astrocytoma cells stably expressing human recombinant GPR65 (1321N1-hrGPR65 cells, EuroscreenFast) were cultured according to the vendor's instructions. Compounds were tested for their ability to antagonise GPR65, through measuring the concentration of cytoplasmic cAMP following treatment of the cells at a pH of 7.2 to activate GPR65 signalling and addition of the compound to be tested. The extent to which the expected rise in cAMP concentration upon GPR65 activation was suppressed by the added compound is indicative of its potency. The assay was carried out according to EuroscreenFast assay Methodology as follows.
On the day of the assay, test compounds were added to 384-well, low volume, white microtiter plates by acoustic dispensing. KRH buffer (5 mM KCl, 1.25 mM MgSO4, 124 mM NaCl, 25 mM HEPES, 13.3 mM Glucose, 1.25 mM KH2PO4 and 1.45 mM CaCl2) was adjusted to pH 6.5, pH 7.6 and pH 8.4 by adding NaOH. 1321N1-hGPR65 cells were rapidly thawed and diluted in KRH, pH 7.6 prior to centrifugation at 300×g for 5 min and resuspension in assay buffer (KRH, pH 7.6, supplemented with 1 mM 3-isobutyl-1-methylxanthine (IBMX) and 200 μM ethylenediaminetetraacetic acid (EDTA)). Cells were added to assay plates at a density of 2,000 cells per well in a volume of 5 μl. Assay plates were briefly centrifuged at 100×g and then incubated at room temperature for 30 min. Cells were stimulated by the addition of 5 μL KRH, pH 6.5, to achieve an assay pH of 7.2, while control wells received 5 μl KRH, pH 8.4 to achieve an assay pH of 7.9. Assay plates were briefly centrifuged at 100×g and then incubated at room temperature for 30 min.
Accumulation of cAMP was detected by cAMP HTRF kit (Cisbio). d2-labeled cAMP and cryptate-labeled anti-cAMP antibody in Lysis and Detection Buffer (Cisbio) were added to assay plates, and the plates were incubated at room temperature for 1 h. HTRF measurements were performed using a Pherastar FSX instrument. Acceptor and donor emission signals were measured at 665 nm and 620 nm, respectively, and HTRF ratios were calculated as signal665 nm/signal620 nm×10^4. Data were normalised to high and low control values and fitted with 4-parameter logistic regression to determine hGPR65 IC50 values for the test compounds, which are shown in Table 1.

[1] = 1321N1-hrGPR65 cells, assay pH 7.2, suppression of cAMP rise, HTRF, read-out: hGPR65 IC50 (activity class)

Chain of human recombinant GPR65 (Q8IYL9 whole entry): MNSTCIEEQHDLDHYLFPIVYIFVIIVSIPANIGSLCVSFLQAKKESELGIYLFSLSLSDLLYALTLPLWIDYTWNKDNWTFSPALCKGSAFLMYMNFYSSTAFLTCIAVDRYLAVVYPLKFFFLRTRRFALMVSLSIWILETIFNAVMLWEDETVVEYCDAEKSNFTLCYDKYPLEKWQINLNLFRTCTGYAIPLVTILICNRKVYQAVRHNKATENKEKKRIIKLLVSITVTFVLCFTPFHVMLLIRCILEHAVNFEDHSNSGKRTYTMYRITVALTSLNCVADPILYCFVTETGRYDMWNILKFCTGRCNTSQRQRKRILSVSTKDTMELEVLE

Structure (SMILES)	IC50	IC50 [1]
O=C1NN=C2C(=CC3CCC2N3C(=O)Nc2cc(Cl)c(C(F)(F)F)cc2F)N1 (racemic) [Compound 1, (±)-N-(5-Chloro-2-fluoro-4-(trifluoromethyl)phenyl)-3-oxo-3,4,6,7,8,9-hexahydro-2H-6,9-epiminocyclohepta[e][1,2,4]triazine-10-carboxamide]	< 500 nM	
O=C1NN=C2C(=CC3CCC2N3C(=O)Nc2cc(Cl)c(-c3cncc(F)c3)cc2F)N1 (racemic) [Compound 2, (±)-N-(5-Chloro-2-fluoro-4-(5-fluoropyridin-3-yl)phenyl)-3-oxo-3,4,6,7,8,9-hexahydro-2H-6,9-epiminocyclohepta[e][1,2,4]triazine-10-carboxamide]	< 500 nM	
O=C1NN=C2C(=CC3CCC2N3C(=O)Nc2cc(Cl)c(-c3ccc(F)nc3)cc2F)N1 (racemic) [Compound 3, (±)-N-(5-chloro-2-fluoro-4-(6-fluoropyridin-3-yl)phenyl)-3-oxo-3,4,6,7,8,9-hexahydro-2H-6,9-epiminocyclohepta[e][1,2,4]triazine-10-carboxamide]	< 500 nM	
O=C1NN=C2C(=CC3CCC2N3C(=O)Nc2cc(Cl)c(-c3ccc4nonc4c3)cc2F)N1 (racemic) [Compound 4, (±)-N-(4-(benzo[c][1,2,5]oxadiazol-5-yl)-5-chloro-2-fluorophenyl)-3-oxo-3,4,6,7,8,9-hexahydro-2H-6,9-epiminocyclohepta[e][1,2,4]triazine-10-carboxamide]	< 500 nM	
O=C1NN=C2C(=CC3CCC2N3C(=O)Nc2cc(C(F)(F)F)on2)N1 (racemic) [Compound 5, (±)-3-Oxo-N-(5-(trifluoromethyl)isoxazol-3-yl)-3,4,6,7,8,9-hexahydro-2H-6,9-epiminocyclohepta[e][1,2,4]triazine-10-carboxamide]		500 to 5000 nM
CS(=O)(=O)c1nnc2c(n1)CC1CCC2N1C(=O)Nc1cc(Cl)c(C(F)(F)F)cc1F (racemic) [Compound 6, (±)-N-(5-Chloro-2-fluoro-4-(trifluoromethyl)phenyl)-3-(methylsulfonyl)-6,7,8,9-tetrahydro-5H-6,9-epiminocyclohepta[e][1,2,4]triazine-10-carboxamide]		500 to 5000 nM
O=C(Nc1cc(Cl)c(C(F)(F)F)cc1F)N1[C@@H]2C=C3NC(=S)NN=C3[C@H]1CC2 [Compound 7, (6S,9R)-N-(5-Chloro-2-fluoro-4-(trifluoromethyl)phenyl)-3-thioxo-3,4,6,7,8,9-hexahydro-2H-6,9-epiminocyclohepta[e][1,2,4]triazine-10-carboxamide]	< 500 nM	
O=C1NN=C2C(=C[C@@H]3CC[C@H]2N3C(=O)Nc2cc(Cl)c(C(F)(F)F)cc2F)N1 [Compound 8, (6S,9R)-N-(5-Chloro-2-fluoro-4-(trifluoromethyl)phenyl)-3-oxo-3,4,6,7,8,9-hexahydro-2H-6,9-epiminocyclohepta[e][1,2,4]triazine-10-carboxamide]	< 500 nM	
O=C1NN=C2C(=C[C@H]3CC[C@@H]2N3C(=O)Nc2cc(Cl)c(C(F)(F)F)cc2F)N1 [Compound 9, (6R,9S)-N-(5-Chloro-2-fluoro-4-(trifluoromethyl)phenyl)-3-oxo-3,4,6,7,8,9-hexahydro-2H-6,9-epiminocyclohepta[e][1,2,4]triazine-10-carboxamide]		500 to 5000 nM
CC(C)Oc1ccc(-c2cc(F)c(NC(=O)N3[C@@H]4C=C5NC(=O)NN=C5[C@H]3CC4)cc2Cl)cn1 [Compound 10, (6S,9R)-N-(5-Chloro-2-fluoro-4-(6-isopropoxypyridin-3-yl)phenyl)-3-oxo-3,4,6,7,8,9-hexahydro-2H-6,9-epiminocyclohepta[e][1,2,4]triazine-10-carboxamide]	< 500 nM	
O=C1NN=C2C(=C[C@@H]3CC[C@H]2N3C(=O)Nc2cc(Cl)c(-c3ccc(OCC(F)(F)F)nc3)cc2F)N1 [Compound 11, (6S,9R)-N-(5-Chloro-2-fluoro-4-(6-(2,2,2-trifluoroethoxy)pyridine-3-yl)phenyl)-3-oxo-3,4,6,7,8,9-hexahydro-2H-6,9-epiminocyclohepta[e][1,2,4]triazine-10-carboxamide]	< 500 nM	
O=C1NN=C2C(=C[C@H]3CC[C@@H]2N3C(=O)Nc2cc(Cl)c(-c3ccc4nonc4c3)cc2F)N1 [Compound 12, (6R,9S)-N-(4-(Benzo[c][1,2,5]oxadiazol-5-yl)-5-chloro-2-fluorophenyl)-3-oxo-3,4,6,7,8,9-hexahydro-2H-6,9-epiminocyclohepta[e][1,2,4]triazine-10-carboxamide]		500 to 5000 nM
O=C1NN=C2C(=C[C@@H]3CC[C@H]2N3C(=O)Nc2cc(Cl)c(-c3ccc4nonc4c3)cc2F)N1 [Compound 13, (6S,9R)-N-(4-(Benzo[c][1,2,5]oxadiazol-5-yl)-5-chloro-2-fluorophenyl)-3-oxo-3,4,6,7,8,9-hexahydro-2H-6,9-epiminocyclohepta[e][1,2,4]triazine-10-carboxamide]	< 500 nM	
